For 29 compounds, TGI results are on record in PubChem BioAssay (NCI).

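Five concentrations, 48 hours, 96-well plates. TGI is the concentration that stops growth completely.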 Bounds are passed on as bounds.

What all share (assay): growth of human tumour cells (NCI), 48 h
The subject of experiment [1] is M14 melanoma.
Experiment [2] concerns HS 578T breast.
The test system of experiment [3] is A549 NSCLC.
The test system of experiment [4] is MCF7 breast.
The subject of experiment [5] is NCI-H522 lung.
The test system of experiment [6] is MDA-N.
Experiment [7] relates to SW-620 colon.
Experiment [8] relates to COLO 205 colon.
The test system of experiment [9] is SK-MEL-2 melanoma.

As to `COc1ccc(C2C(C#N)=C(S)N(C3OC(CO)C(O)C(O)C3O)C(C)=C2C(C)=O)cc1` (centres undefined), the TGI in experiment [1], in experiment [2], in [3], in experiment [4], in [5] and in [6] was above 100 µM each time. Moreover, the TGI in experiment [7], in [8] and in experiment [9] was above 100 µM in each case.
With `O=C(N[C@H]1CCC[C@H]1C(=O)Nc1ccc(C(F)(F)F)cc1)OCc1ccccc1`, the TGI in experiment [1], in [2], in experiment [3], in [4], in experiment [5] and in [6] was above 100 µM throughout. In addition, the TGI in [7], in experiment [8] and in [9] was above 100 µM throughout.
As for `O=C1c2cc3c(cc2CC1Cc1ccc2c(c1)CCC2)CCC3` (centres undefined), the TGI in [1], in experiment [2], in experiment [3], in experiment [4], in [5] and in experiment [6] was above 100 µM throughout. The TGI in experiment [7] was above 100 µM; in experiment [8], 52.2 µM; in experiment [9], above 100 µM.
On to `O=c1c2cc(I)ccc2nc(SCc2nnco2)n1Cc1ccccc1`, for which the TGI in experiment [1], in experiment [2], in [3], in experiment [4], in [5] and in experiment [6] was above 100 µM each time. Also, the TGI in experiment [7], in experiment [8] and in experiment [9] was above 100 µM throughout.
Consider `C1=CN2C[n+]3ccc4ccccc4c3N=C2c2ccccc21`, for which the TGI is 11.7 µM in experiment [1]; 30.4 µM in experiment [2]; 21.6 µM in experiment [3]; 3.71 µM in experiment [4]; 5.09 µM in [5]; 7.59 µM in experiment [6]. Moreover, the results for the TGI in [7], in experiment [8] and in [9] were 34.2 µM, 4.26 µM and 9.33 µM, respectively.
For the compound `CC(=O)N1C(Nc2cccc3nc(C)ccc23)CCN1c1ccccc1` (centres undefined), the TGI in experiment [1], in experiment [2], in [3], in experiment [4], in [5] and in experiment [6] was above 10 µM in each case. Besides, the TGI in [7], in [8] and in [9] was above 10 µM in each case.
With `CC(=O)O[C@H]1C[C@](C)(O)[C@@]23CC([C@@H](OC(=O)C(C)(C)O)[C@@H](OC(C)=O)C2(COC(=O)c2ccccc2)[C@H]1OC(C)=O)C(C)(C)O3` (some centres undefined), the TGI in experiment [1], in [2], in experiment [3], in experiment [4], in [5] and in experiment [6] was above 100 µM throughout. The TGI in [7], in [8] and in experiment [9] was above 100 µM each time.
For the compound `CC1CCOc2ccc(cc2)C=Nc2ccc(cc2)-c2ccc(cc2)N=Cc2ccc(cc2)OCC1` (centres undefined), the TGI in [1], in experiment [2], in experiment [3], in [4], in experiment [5] and in experiment [6] was above 100 µM throughout. Besides, the TGI in experiment [7], in experiment [8] and in [9] was above 100 µM throughout.
As for `CC(=O)c1[nH]c(Nc2ccc(C)cc2)c(C(=S)Nc2ccccc2)c1N`, the TGI in experiment [1] worked out at 36.4 µM; in experiment [2], 52.3 µM; in experiment [3], 30.7 µM; in [4] it was 30.6 µM; in experiment [5], 32.5 µM; in experiment [6], 37.2 µM. In addition, the TGI in [7] is 96.9 µM; in experiment [8] it was above 100 µM; in experiment [9] it was 31.9 µM.
As for `CC1=CC(=O)/C(=C/n2c(=S)[nH]c3cc(C)ccc32)C(=O)O1`, the TGI in [1], in [2], in [3], in experiment [4], in experiment [5] and in [6] was above 100 µM each time. Besides, the TGI in [7], in experiment [8] and in experiment [9] was above 100 µM in each case.
As for `C[N+]1([O-])[C@H]2CC(OC(=O)[C@H](CO)c3ccccc3)C[C@H]1[C@H]1O[C@H]12` (some centres undefined), the TGI in [1], in experiment [2], in [3], in experiment [4], in experiment [5] and in experiment [6] was above 100 µM in each case. Further, the TGI in [7], in experiment [8] and in experiment [9] was above 100 µM throughout.
In the case of `COc1cc([C@@H]2c3cc4c(cc3[C@@H](c3c(O)cc(O)c5c3O[C@H](c3ccc(O)c(O)c3)[C@H](OC(=O)c3cc(O)c(O)c(O)c3)C5)[C@H]3COC(=O)[C@H]23)OCO4)cc(OC)c1O`, the TGI was 64.2 µM in experiment [1]; above 100 µM in [2]; 99.2 µM in experiment [3]; above 100 µM in experiment [4]; above 100 µM in [5]; above 100 µM in experiment [6]. In addition, the TGI in experiment [7] was above 100 µM; in [8], 84.1 µM; in experiment [9], above 100 µM.
Consider `COc1ccc(N2N=NN(C(C)C)/C2=C(/Cl)c2nnnn2-c2ccc(OC)cc2)cc1`, for which the TGI in experiment [1] amounted to 21.9 µM; in experiment [2] it was 52.6 µM; in experiment [3], 33.6 µM; in [4], 22.6 µM; in [5] it was 5.48 µM; in [6], 27.4 µM. In addition, the TGI in experiment [7] stood at 3.96 µM; in experiment [8] it was 13.1 µM; in experiment [9], 29.6 µM.
For `NCCS(=O)(=O)O`, the TGI in [1], in experiment [2], in experiment [3], in experiment [4], in experiment [5] and in [6] was above 100 µM each time. Besides, the TGI in experiment [7], in experiment [8] and in experiment [9] was above 100 µM throughout.
Take `CC1C(C#N)(C#N)C(C#N)=C(N)C1(C)[N+](=O)[O-]` (centres undefined): the TGI in experiment [1], in [2], in experiment [3], in experiment [4], in experiment [5] and in experiment [6] was above 100 µM each time. The TGI in experiment [7], in experiment [8] and in [9] was above 100 µM in each case.
For `OC(C1CCCCCCCCCC1)C(O)C1CCCCCCCCCC1` (centres undefined), the TGI in [1], in experiment [2], in [3], in [4], in experiment [5] and in experiment [6] was above 100 µM each time. The TGI in [7], in [8] and in experiment [9] was above 100 µM throughout.
As to `COC12C=CC(CC1)C(C)(C)C2OS(C)(=O)=O` (centres undefined), the TGI in experiment [1], in experiment [2], in experiment [3], in [4], in experiment [5] and in experiment [6] was above 100 µM throughout. Further, the TGI in [7], in [8] and in experiment [9] was above 100 µM in each case.
On to `CCOC(=O)C(NC(=O)CC)(Nc1ccc(S(=O)(=O)Nc2ccc(OC)nn2)cc1)C(F)(F)F` (centres undefined), for which the TGI in experiment [1], in experiment [2], in experiment [3], in experiment [4], in experiment [5] and in experiment [6] was above 100 µM throughout. Besides, the TGI in [7], in experiment [8] and in experiment [9] was above 100 µM in each case.
As to `O=C(/C=C/c1ccccc1)Oc1cccc(Br)c1`, the TGI is above 100 µM in [1]; above 100 µM in [2]; above 100 µM in [3]; 47.4 µM in experiment [4]; 29.2 µM in [5]; above 100 µM in experiment [6]. In addition, the TGI in experiment [7], in [8] and in experiment [9] was above 100 µM in each case.
As for `CC(=O)OCC1OC(SC2=NC(=O)/C(=C/c3ccccc3)S2)C(OC(C)=O)C(OC(C)=O)C1OC(C)=O` (centres undefined), the TGI was above 100 µM in [1]; 75.7 µM in experiment [2]; above 100 µM in experiment [3]; 52.2 µM in experiment [4]; 80.6 µM in experiment [5]; above 100 µM in experiment [6]. Also, the TGI is 74.1 µM in experiment [7], above 100 µM in experiment [8] and above 100 µM in [9].
For `O=C1O[C@H]2C3C4CCC(C4[C@@H]2I)[C@H]13` (some centres undefined), the TGI in experiment [1], in experiment [2], in experiment [3], in experiment [4], in experiment [5] and in experiment [6] was above 100 µM each time. The TGI in [7], in experiment [8] and in experiment [9] was above 100 µM each time.
With `CN(C)C=NCC(O)c1ccccc1` (centres undefined), the TGI in [1], in experiment [2], in experiment [3], in experiment [4], in experiment [5] and in [6] was above 100 µM each time. Also, the TGI in [7], in experiment [8] and in [9] was above 100 µM throughout.
On to `COc1ccc(Cn2c3ccc([N+](=O)[O-])cc3c(=O)n2Cc2ccccn2)cc1`, for which the TGI in experiment [1], in [2], in [3], in experiment [4], in experiment [5] and in [6] was above 100 µM throughout. Besides, the TGI in [7], in experiment [8] and in [9] was above 100 µM in each case.
Regarding `CC(C)=CCC[C@@H](C)C1=CC(=O)C(C)=C(O)C1=O`, the TGI in experiment [1] was determined as 17.4 µM; in [2] it was 21.1 µM; in [3], 25 µM; in experiment [4] it was 16 µM; in experiment [5] it was 2.78 µM; in experiment [6], 16.6 µM. In addition, the TGI in [7] stood at 33.5 µM; in [8] it was 28.3 µM; in experiment [9] it was 26.3 µM.
For `O=C1C=C(O)c2c(O)ccc(O)c2C1=O`, the TGI in experiment [1], in [2], in experiment [3], in experiment [4], in experiment [5] and in [6] was above 100 µM each time. The TGI in experiment [7], in [8] and in experiment [9] was above 100 µM each time.
On to `Nc1ccccc1OCCCOc1ccccc1N`, for which the TGI in [1], in [2], in experiment [3], in experiment [4], in experiment [5] and in experiment [6] was above 100 µM in each case. Further, the TGI in experiment [7], in [8] and in [9] was above 100 µM in each case.
Regarding `COc1cc(S(=O)(=O)Nc2ccc(-c3csc(N4C(=O)C(C)SC4c4ccccc4)n3)cc2)ccc1Cl` (centres undefined), the TGI in [1] was above 100 µM; in [2], above 100 µM; in [3], above 100 µM; in experiment [4], 43.2 µM; in [5] it was above 100 µM; in experiment [6] it was above 100 µM. Further, the results for the TGI in experiment [7], in experiment [8] and in [9] were above 100 µM, above 100 µM and 21.5 µM, respectively.
In the case of `N#Cc1ccc(C2Oc3ccc(Cl)cc3C=C2[N+](=O)[O-])cc1` (centres undefined), the TGI in experiment [1] was 2.73 µM; in experiment [2] it was 47.6 µM; in experiment [3] it was 3.3 µM; in experiment [4], 3.14 µM; in experiment [5], 2.92 µM; in experiment [6], 3.19 µM. Besides, the TGI in [8] came to 1.87 µM; in experiment [9] it was 4.09 µM.
Consider `CCOC(=O)C1=C(c2ccccc2)C12N(Cc1ccccc1)C(=O)C2(c1ccccc1)c1ccccc1` (centres undefined), for which the TGI was above 100 µM in [1]; above 100 µM in [2]; above 100 µM in experiment [4]; 75.2 µM in experiment [5]; above 100 µM in [6]; above 100 µM in experiment [7]. Besides, the TGI was determined as 60.1 µM in experiment [8] and 80 µM in [9].
